# Tests used:
# thrombin = molecular target: T1, thrombin (Homo sapiens, UniProt P00734); assay: Measurement of the enzymic activity of thrombin in solution (amperometric hydrolysis of substrate); assay type: biochemical; details: substrate c = 0.5 mmol, 1 NIH-U of thrombin, 400 mV, HEPES 50 mM pH 7.4, KCl 0.1 M, 25° C.
# T1 construct: purchased Diagnotec Liestal 100-500
# Procedure: 1) A Tacusell PGP201 potentiostat, software VM1, which maintains a constant potential difference between the measuring electrode and reference electrode, is used. The measuring cell used is a glass beaker with a capacity of 25 ml or 1 ml, which can receive the 3 electrodes.
# 2) A platinum wire with a surface area of 34 mm^2 or 3 mm^2 is used as measuring electrode.
# 3) A calomel electrode (SCE) is used as reference electrode at which the potentials are measured.
# 4) The auxiliary electrode consists of platinum wire and serves to ensure passage of the current.
# 5) The measured solution is stirred by a magnetic stirrer for homogenization.
# Thrombin concentration: 0.5, 1.0, 2 NIH-U/ml
# Buffer: HEPES buffer, 50 mM, pH 7.4, KCl, 0.1 M
# For example a 0.5 mM solution of the substrate Tos-Gly-Pro-Arg 3-chloro-4-hydroxyanilide×AcOH in HEPES buffer is prepared, as is a stock solution of thrombin with 100 NIH-U/1 ml in distilled water. 1 ml of substrate solution (c=0.5 mmol) is introduced into a 1 ml measuring cell provided with 3 electrodes of the Tacusell PGP201 potentiostat, software VM1. A cycle is allowed to run potentiodynamically from −30 to 500 mV to record the zero value (10 min). For the measurement, 10 µl of thrombin solution (final concentration 1.0 NIH-U/ml) is placed in the measuring cell, […], after mixing for 30 sec, the current is recorded potentiostatically over a time of 10 min. The measurements are carried out as duplicate determination.
# FIGS. 5, 6 and 7 (μA cm^2/min, T=0-5 min, at 400 mV) show the linear cleavage rates by means of 3 substrates with different electroactive groups at a thrombin concentration of 1 NIH-U and substrate concentration c=0.5 mmol: […]
# [1] = Cyclic voltammogram of the substrate (electroactivity); assay type: physicochemical; details: c=0.5 mM in HEPES buffer, pH=7.4, 0.1 M KCl; -30 to 600 mV; 1 ml cell, electrode 3 mm^2
# Excerpt: […] A measurement cycle can take place when the basic current affords sufficient accuracy. The basic current is subtracted from the measurement during the hydrolysis of a substrate or the recording of a profile of an electroactive compound.
# 2) Evaluation of the results: the currents recorded in the linearity range are, after subtraction of the basic current at the relevant potential, proportional to the concentration of the electroactive species during the hydrolysis. The liberated electroactive species, which is cleaved off by the substrate, is likewise proportional to the enzyme concentration employed.
# 3) A platinum electrode is used to record the cyclic voltammograms at concentrations of 0.25 mmol, 0.5 mmol and 1.0 mmol. HEPES, 50 mmol at pH 7.4, is used as buffer. FIGS. 1 and 2 show typical cyclic reversible plots for 4-amino-2-chlorophenol and 5-amino-8-hydroxyquinoline: recorded from −30 to 600 mV at 500 mV/min. These amperogenic substances preferably show a linear dependence of the current strength on the concentration at low potential in the region of 300 mV, with a high current strength. The system is in equilibrium in this case. A higher voltage of >400 mV is undesired because of interference with possible constituents in the blood, for example paracetamol. […]
Substance,"Standardization: current resulting from hydrolysis of the substrate with thrombin, per cm^2 of electrode surface area in one minute (thrombin)",Electroactivity of the uncleaved substrate at 400 mV [1]
H-(D)-Chg-Gly-Arg 3-chloro-4-hydroxyanilide×2 TFA,3 μA/cm^2 of electrode,
Tos-Gly-Pro-Arg 3-chloro-4-hydroxyanilide×AcOH,2 μA/cm^2 of electrode,no electroactivity
Z-gly-pro-arg 2-chloro-4-hydroxyanilide×HCl,0.5 μA/cm^2 of electrode,
